Publication PMC10154249, “Unique progerin C-terminal peptide ameliorates Hutchinson–Gilford progeria syndrome phenotype by rescuing BUBR1” (Nature Aging, 2023)

Assays:
BUBR1 = target: T1, BUBR1 (Homo sapiens, UniProt O60566); assay: Microscale thermophoresis (MST) of UPCP and BUBR1; assay type: binding; conditions: Fig. 3d
T1 construct: made in house
Description: Cells were harvested and lysed in buffer A mixed with protease inhibitor cocktail tablet (Roche) after 48 h. […] The beads were washed three times using 1× Tris saline buffer (50 mM Tris-HCl (pH 7.4) and 150 mM NaCl)) for 8 min each. The bound proteins BUBR1 or PTBP1 were eluted with 3×Flag peptide (ApexBio) for 2 h at 4 °C. Finally, BUBR1 or PTBP1 was concentrated and recovered by using the Centrifugal Filters (Amicon Ultra).
His-UPCP was eluted with Imidazole eluent for 2 h at 4 °C and concentrated and recovered by using centrifugal filters (Amicon Ultra). Flag-BUBR1 or PTBP1 was purified as described in Affinity purification of Flag-tagged protein. The purified protein was diluted with 0.05% Tween-20 in PBS in to an appropriate concentration (His-UPCP: 50 nM, Flag-BUBR1: 25 μM, Flag-PTBP1: 45 μM). Then, His-UPCP was labeled with RED-Tris-NAT according to the manufacturer’s instructions (NanoTemper, MO-L018). Flag-BUBR1 or Flag-PTBP1 was diluted by 16 concentration gradients in turn and mixed with labeled protein (His-UPCP). The capillaries (MST NT115 premium) were loaded and the samples measured on the instrument (NanoTemper Monolith NT.115). Data were analyzed by MO.AffinityAnalysis and curves were drawn using Origin 2019.

HGADFN167 cells = assay: SA-β-gal staining of HGADFN167 cells; assay type: cell-based, human
Description: SA-β-gal staining was performed as previously described. Cells were fixed in 0.5% glutaraldehyde for 15 min at room temperature, washed three times with PBS (pH 6.0) containing 1 mM MgCl2 and exposed overnight 37 °C to containing 1 mg ml^–1 5-bromo-4-chloro-3-indolyl-β-D-galactopyranoside (MCE, catalog no. HY-15934), 0.12 mM potassium ferrocyanide (Sigma, catalog no. P3289), 0.12 mM potassium ferricyanide (Sigma, catalog no. P8131) and 1 mM MgCl2 PBS buffer (pH 6.0). Cells were washed three times with H2O and observed under a microscope (OLYMPUS CKX53). SA-β-gal positive cells were quantified by investigators who were blinded to the identity of the analyzed cell.

[1] = test system: BUBR1, HMGA1, KDM1A, ZNF143 and FOXM1 mRNA; assay: RT-PCR of BUBR1 and its transcription factors in HGADFN003 cells; assay type: cell-based, human; conditions: for BUBR1 relative (to β-actin) mRNA level (2-ΔΔCt) / FOXM1 relative (to β-actin) mRNA level (2-ΔΔCt) / HMGA1 relative (to β-actin) mRNA level (2-ΔΔCt) / KDM1A relative (to β-actin) mRNA level (2-ΔΔCt) / ZNF143 relative (to β-actin) mRNA level (2-ΔΔCt): Fig. 4a, HGADFN003, vs Mock = 1; for BUBR1 relative (to β-actin) mRNA level (2-ΔΔCt): P=0.0003; for FOXM1 relative (to β-actin) mRNA level (2-ΔΔCt): P=0.2399; for HMGA1 relative (to β-actin) mRNA level (2-ΔΔCt): P=0.9214; for KDM1A relative (to β-actin) mRNA level (2-ΔΔCt): P=0.683; for ZNF143 relative (to β-actin) mRNA level (2-ΔΔCt): P=0.9897
Description: RNA preparation was performed as described. Total RNA was extracted using Trizol reagent (TaKaRa) following the manufacturer’s instructions. cDNA was generated with M-MLV reverse transcriptase (Promega, catalog no. M170B). Reverse transcription with PCR (RT-PCR) was performed with SYBR Green Real-Time PCR Master Mix (TaKaRa). RT-PCR was carried out on a QuantStudio 3 Real-Time-PCR Instrument (ABI). Data were analyzed and further processed in QuantStuido Design and Analysis Software and GraphPad Prism v.7. Fold change in gene expression over control samples was calculated using the 2^–ΔΔCt method, where β-actin Ct values were used as an internal control. The primer sequences for PCR, synthesized by Comate Bioscience, were as follows:
β-actin_fwd (5′-[…]-3′) and β-actin_rev (5′-[…]-3′); AURKB_fwd (5′-[…]-3′) and AURKB_rev (5′-[…]-3′); BUB1_ fwd (5′-[…]-3′) and BUB1_rev (5′-[…]-3′); BUB1B_fwd (5′-[…]-3′) and BUB1B_ rev (5′-[…]-3′); CCNA2_fwd (5′-[…]-3′) and CCNA2_ rev (5′-[…]-3′); Mad2l1_fwd (5′-[…]-3′) and Mad2l1_ rev (5′-[…]-3′); TTK1_fwd (5′-[…]-3′) and TTK1_ rev (5′-[…]-3′); PLK1_fwd (5′-[…]-3′) and PLK1_ rev (5′-[…]-3′); PTBP1_fwd (5′-[…]-3′) and PTBP1_ rev (5′-[…]-3′); HMGA1_fwd (5′-[…]-3′) and HMGA1_ rev (5′-[…]-3′); KDM1A1_fwd (5′-[…]-3′) and KDM1A1_ rev (5′-[…]-3′); ZNF143_fwd (5′-[…]-3′) and ZNF143_ rev (5′-[…]-3′); FOXM1_fwd (5′-[…]-3′) and FOXM1_ rev (5′-[…]-3′).

T1 sequence (O60566 whole entry): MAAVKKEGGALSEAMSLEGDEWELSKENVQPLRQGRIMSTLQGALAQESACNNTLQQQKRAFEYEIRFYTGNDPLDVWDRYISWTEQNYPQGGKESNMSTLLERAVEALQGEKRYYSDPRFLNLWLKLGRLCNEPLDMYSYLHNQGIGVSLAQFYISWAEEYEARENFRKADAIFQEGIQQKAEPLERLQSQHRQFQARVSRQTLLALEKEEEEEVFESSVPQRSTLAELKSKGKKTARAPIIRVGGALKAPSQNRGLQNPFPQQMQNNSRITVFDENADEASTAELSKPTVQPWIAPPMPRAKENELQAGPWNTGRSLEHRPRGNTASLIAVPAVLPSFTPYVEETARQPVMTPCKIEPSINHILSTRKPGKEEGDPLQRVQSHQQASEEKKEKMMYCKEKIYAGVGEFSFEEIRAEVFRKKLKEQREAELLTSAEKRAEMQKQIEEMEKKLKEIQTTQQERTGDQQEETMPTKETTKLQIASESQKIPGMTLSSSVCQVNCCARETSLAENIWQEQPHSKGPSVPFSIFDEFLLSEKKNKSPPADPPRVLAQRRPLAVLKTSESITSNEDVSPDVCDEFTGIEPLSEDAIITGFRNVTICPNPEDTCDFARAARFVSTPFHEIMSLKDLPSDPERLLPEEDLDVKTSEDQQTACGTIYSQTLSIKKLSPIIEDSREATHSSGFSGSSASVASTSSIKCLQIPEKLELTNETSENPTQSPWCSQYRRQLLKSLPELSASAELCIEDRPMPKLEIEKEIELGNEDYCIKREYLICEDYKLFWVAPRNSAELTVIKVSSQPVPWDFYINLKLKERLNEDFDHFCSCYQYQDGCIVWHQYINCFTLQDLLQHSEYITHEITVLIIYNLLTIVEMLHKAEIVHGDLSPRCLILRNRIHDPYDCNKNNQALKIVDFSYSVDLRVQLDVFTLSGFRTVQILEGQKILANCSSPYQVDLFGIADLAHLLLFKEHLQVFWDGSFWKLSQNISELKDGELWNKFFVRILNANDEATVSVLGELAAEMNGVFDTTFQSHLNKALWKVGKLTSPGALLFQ

## H-YGRKKRRQRRRYNLRSRTVLCGTCGQPADKASASGSGAQSPQNCSIM-OH (cysteines drawn unpaired) [UPCP, unique progerin C-terminal peptide]
BUBR1; Dose 3.125e-6, Err-Value 0.164542
  Dose Response Curve, Response: 928.56
BUBR1; Dose 6.25e-6, Err-Value 0.285623
  Dose Response Curve, Response: 930.678
BUBR1; Dose 1.25e-5, Err-Value 0.150599
  Dose Response Curve, Response: 932.492
BUBR1; Dose 1.22E-08, Err-Value 0.206069
  Dose Response Curve, Response: 919.933
BUBR1; Dose 1.53E-09, Err-Value 0.561265
  Dose Response Curve, Response: 919.392
BUBR1; Dose 1.56E-06, Err-Value 0.465775
  Dose Response Curve, Response: 925.424
BUBR1; Dose 1.95E-07, Err-Value 0.135144
  Dose Response Curve, Response: 920.487
BUBR1; Dose 2.44E-08, Err-Value 0.0972446
  Dose Response Curve, Response: 919.498
BUBR1; Dose 3.05E-09, Err-Value 0.226695
  Dose Response Curve, Response: 919.513
BUBR1; Dose 3.81E-10, Err-Value 0.379307
  Dose Response Curve, Response: 919.141
BUBR1; Dose 3.91E-07, Err-Value 0.144905
  Dose Response Curve, Response: 921.751
BUBR1; Dose 4.88E-08, Err-Value 0.856541
  Dose Response Curve, Response: 920.216
BUBR1; Dose 6.10E-09, Err-Value 0.130907
  Dose Response Curve, Response: 919.306
BUBR1; Dose 7.63E-10, Err-Value 0.475828
  Dose Response Curve, Response: 919.4
BUBR1; Dose 7.81E-07, Err-Value 0.529145
  Dose Response Curve, Response: 922.85
BUBR1; Dose 9.77E-08, Err-Value 0.363098
  Dose Response Curve, Response: 919.824
HGADFN167 cells; HGADFN167, replicate 1
  SA-β-gal positive cells: 24%
HGADFN167 cells; HGADFN167, replicate 2
  SA-β-gal positive cells: 26%
HGADFN167 cells; HGADFN167, replicate 3
  SA-β-gal positive cells: 20%
[1]; replicate 1
  BUBR1 relative (to β-actin) mRNA level (2-ΔΔCt): 5.569
  FOXM1 relative (to β-actin) mRNA level (2-ΔΔCt): 1.5201
  HMGA1 relative (to β-actin) mRNA level (2-ΔΔCt): 0.9058
  KDM1A relative (to β-actin) mRNA level (2-ΔΔCt): 0.9262
  ZNF143 relative (to β-actin) mRNA level (2-ΔΔCt): 0.3607
[1]; replicate 2
  BUBR1 relative (to β-actin) mRNA level (2-ΔΔCt): 6.327
  FOXM1 relative (to β-actin) mRNA level (2-ΔΔCt): 2.139
  HMGA1 relative (to β-actin) mRNA level (2-ΔΔCt): 1.8337
  KDM1A relative (to β-actin) mRNA level (2-ΔΔCt): 0.9644
  ZNF143 relative (to β-actin) mRNA level (2-ΔΔCt): 1.774
[1]; replicate 3
  BUBR1 relative (to β-actin) mRNA level (2-ΔΔCt): 4.947
  FOXM1 relative (to β-actin) mRNA level (2-ΔΔCt): 0.8641
  HMGA1 relative (to β-actin) mRNA level (2-ΔΔCt): 0.3934
  KDM1A relative (to β-actin) mRNA level (2-ΔΔCt): 1.24
  ZNF143 relative (to β-actin) mRNA level (2-ΔΔCt): 0.8819
[1]; RT-PCR, HGADFN003 cells
  BUBR1 mRNA expression: could upregulate expression of BUBR1
  expression of transcription factors regulating BUBR1: had little effect on their expression
